Measured values published in patent US11141391B2, “Biomarkers for risk assessment, diagnosis and target microbiome and intestinal homeostasis for prevention and treatment of amyotrophic lateral sclerosis” (Rush University Medical Center, priority 2014, dated 2021).
Entries after “also recorded” stand apart in the source; their conditions may differ.

Tests used:
[1] = test system: ALS patients; conditions: cited from earlier work
[2] = test system: G93A amyotrophic lateral sclerosis model mice; test: Butyrate treated mice model: oral sodium butyrate in drinking water, body weight and survival; assay type: in vivo, mouse
Source text: Nine G93A mice were divided into a […] (n=4) and a butyrate group (n=5). Butyrate mice started to drink 2% sodium butyrate in the drinking water bottle from age 63 days, without treatment mice drank regular water mice. Without treatment mice died on day 127, 133, 143, 155 separately.
Mice were divided into control and butyrate group. Butyrate group mice were given 2% sodium butyrate (Sigma, St. Louis, Mo.) water ad libitum from age 63 days. The untreated control group was maintained on tap water throughout the experiment. Without treatment mice died on day 127, 133, 143, 155 separately.

SMILES	patient life span ([1]; FDA approved treatment)	relief of symptoms [1]	body weight loss ([2]; 2% sodium butyrate in drinking water ad libitum from age 63 days, n=5, vs untreated G93A mice n=4 (FIG. 4A))	additional survival time of butyrate mice ([2]; 2% sodium butyrate in drinking water from age 63 days, relative to untreated mice that died on day 127-155)	survival ([2]; 2% sodium butyrate in drinking water from age 63 days, untreated mice died on day 127, 133, 143, 155 (FIG. 4B))
Nc1nc2ccc(OC(F)(F)F)cc2s1 [Riluzole]	extends patient life span for only a few months	does not relieve symptoms	–	–	–
CCCC(=O)[O-].[Na+] [sodium butyrate]	–	–	prevents body weight loss	survived at least one additional month or longer	extends survival time; also recorded: All the butyrate mice survived
